The text below walks through data of US20250064779A1, “COMPOSITIONS AND METHODS FOR THE TREATMENT OF DEPRESSION” (Janssen Pharmaceuticals, Inc., priority 2022, published 2025).

Common to all, as to assay type: in vivo, human
A short description of one series: Weight change, Example 1. The following applies: n = 85; for Mean weight, Withdrawal Baseline, mean (SE): after 6 weeks in the double-blind treatment phase. The source says: At the lead-in baseline timepoint, the mean weight for subjects in the placebo group was 76.17 kg compared to 78.66 in the aticaprant group. After 6 weeks in the double-blind treatment phase, the mean weight in the placebo group was 75.75 kg compared to 78.57 kg in the aticaprant group. […] This is unexpected because other adjunctive treatments for MDD result in a mean weight increase. See, Thase M, et al. J Clin Psych. 2015: 76(9), 1224-1231; Thase, J Clin Psych. 2015, 76(9):1232-1240; El Khalili, Int J Neuropsychopharmacol. 2010, 13, 917-932; Marcus, J. Clin. Psychopharmacol. […] Nashville, Tenn, ACNP, 2008; Earley, American College of Neuropsychopharmacology, 2007, Annual Meeting Abstracts (Boca Raton, Fla, Dec. 9-13, 2007). Nashville, TN, ACNP, 2007). See, Table 29.

The subject of series [1] is subjects with TRD. In words: SDS remission (functional recovery), esketamine long-term study (Example 5). The note with it: observed case. The source says: Functional recovery measured by SDS followed with some lag time after mood improvement. […] See, FIG. 32.
Series [2] deals with subjects with TRD. In words: PHQ-9 total score, esketamine long-term study (Example 5). From the text: This is an open-label, multicenter, long-term study to evaluate the efficacy of intranasal esketamine plus a newly initiated oral antidepressant in subjects with TRD ([…] 3002/NCT02418585).
Each subject participated in up to 4 phases: up to 4-week screening phase (direct-entry subjects only), a 4-week open-label induction (IND) phase (direct-entry subjects and transferred-entry non responder subjects), a 48-week open-label optimization/maintenance (OP/MA) phase (all responder subjects from the open label IND phase of the current study, and transferred-entry responder subjects), and a 4-week follow-up phase. The maximum duration of the subject's participation in […] 3004 study was 60 weeks for direct-entry subjects; 56 weeks for transferred-entry non-responder subjects, and 52 weeks for transferred-entry responder subjects. The sample size of 750 was estimated to have at least 300 subjects received treatment with intranasal esketamine for 6 months and at least 100 subjects for 12 months. In addition, transfer-entry subjects were enrolled from 3005 study to get 100 elderly subjects dosed with esketamine. See, FIG. 30 for the trial design.
The efficacy analyses are based on the full (IND) analysis set and the full (OP/MA) analysis set. […] A total score (0 to 60) is calculated by summing the scores of all 10 items. […]

Series [3] concerns subjects with TRD. In words: MADRS, intranasal esketamine plus oral antidepressant, open-label long-term study (Example 5).
Series [4] concerns adjunctive MDD, including treatment-resistant MDD (TRD) and MDD with suicidal ideation (SUI). In words: Biomarker signature (3MM, 2MM, CRP) analysis of MADRS treatment effect across clinical trials (Example 6). Here is the method: Samples of venous blood were obtained from patients and healthy control subjects from subject described in Example 5 and from the other clinical trials referenced herein. Serum or plasma was prepared from the samples of venous blood. Measurements of human CRP and IL-6-R were performed in serum using an MSD Sector 6000 with the kits #K151STD and K151ALC (MesoScale Discovery, Rockville, MD). Human TNFα was quantified in serum using a Simoa HD-1 analyzer with kit #143 (Quanterix, Lexington, MA). All measures were performed according to kit manufacturer's recommendations.
As used in the following biomarker assay analysis, treatment (TRT) refers to treatment with intranasal esketamine plus optionally an oral antidepressant and placebo (PBO) refers to treatment with a placebo plus optionally an oral antidepressant.
The following biomarker signatures were employed: • 3MM: Inflammatory biomarker signature with positive status defined by CRP >3 mg/L and (TNFα>4 pg/mL or sIL6R>25 ng/mL). • 2MM: Inflammatory biomarker signature with positive status defined by CRP >3 mg/L and sIL6R>25 ng/mL. • CRP: Inflammatory biomarker signature with positive status defined by CRP >3 mg/L/
The 3MM signature was tested in clinical trials for adjunctive MDD, including treatment-resistant MDD (TRD) and MDD with suicidal ideation (SUI). […] Significant was driven by Esketamine (ESK) TRD trials.

[5] abbreviates: endpoint of OP/MA phase, responders proceeding to OP/MA.
[6] abbreviates: across the esketamine TRD trials, end of double blind treatment.

“And” between values parts separate entries of the source, which are not always exact repeats. Identical values can stand only once.

As for `Cc1cc(C)cc(C2CCCN2Cc2ccc(Oc3ccc(C(N)=O)cc3F)cc2)c1` (stereo not drawn) [aticaprant, 3-fluoro-4-4-2-(3,5-dimethylphenyl)pyrrolidin-1-yl-methylphenoxybenzamide], in “Weight change, Example 1”, the “Mean weight, Lead-in Baseline, mean (SE)” value is on record as 78.66 kg; the “Mean weight, Screening, mean (SE)” value was 78.42 (1.65) kg; the “Weight: Absolute Change (Withdrawal − Lead-in)” value was -0.09 kg; the “Mean weight, Withdrawal Baseline, mean (SE)” value turned out to be 78.57 kg. The “Weight: Relative % Change” value in “Weight change, Example 1” (Withdrawal vs Lead-in) is given as −0.11%. Moreover, in “Weight change, Example 1” (listed as Aticaprant), the “Mean weight, Withdrawal Baseline, mean (SE)” value was 78.57 (1.71) kg and the “Mean weight, Lead-in Baseline, mean (SE)” value is 78.66 (1.65) kg.
As to `CN[C@]1(c2ccccc2Cl)CCCCC1=O` [esketamine, (S)-2-(2-chlorophenyl)-2-(methylamino)cyclohexanone], in the series on subjects with TRD [1] (OP/MA phase week 4), the “remission rate measured by SDS” value came out at 25.2%. In addition, the “remission rate measured by SDS” value in the series on subjects with TRD [1] (OP/MA phase week 48) is reported as 51.1%. Further, the “remission rate measured by SDS” value in the series on subjects with TRD [1] (endpoint of the IND phase) came to 21.1%. Further, the “PHQ-9 total score: mean change (SD) from Baseline (IND) to End Point (IND)” value in the series on subjects with TRD [2] (induction phase) is reported as −8.9 (6.67). The “PHQ-9 total score: mean change (SD) from Baseline (OP/MA) to End Point (OP/MA)” value in the series with subjects with TRD [2] (optimization/maintenance phase) is recorded as −0.2 (5.65). For the same molecule, the “MADRS total score: mean change (SD) from Baseline (IND) to End Point (IND)” value in the series with subjects with TRD [3] (4-week open-label induction phase, intranasal 28/56/84 mg twice weekly) is listed as −16.4 (8.76). In addition, the “MADRS total score: mean change (SD) from Baseline (OP/MA) to End Point (OP/MA)” value with subjects with TRD [3] (48-week optimization/maintenance phase) is reported as 0.3 (8.12). In the series on subjects with TRD [3] (End Point, IND phase), the “remission rate (MADRS total score ≤12)” value is on record as 47.2% and the “response rate (≥50% improvement from Baseline (IND) in MADRS total score)” value was found to be 78.4%. Besides, in the series with subjects with TRD [3] (setting [5]), the “remitters (MADRS total score ≤12)” value is recorded as 58.2% and the “responders (≥50% improvement in MADRS total score)” value is listed as 76.5%. Also, in series [4] (TRD2003, Japanese patients), the “treatment effect, change in MADRS, biomarker signature negative patients” value is on record as 2.83 points. In series [4] (TRD2003, Japanese patients, small n), the “treatment effect, change in MADRS, biomarker signature positive patients” value came out at 11.69 points. For the same molecule, the “Signature advantage (difference between subtypes), 3MM” value in series [4] (across the esketamine TRD trials) is recorded as 5.8 point. For the same molecule, in series [4] (setting [6]), the “Treatment effect over placebo in 3MM biomarker signature negative subjects (TE SigNeg)” value was 2 MADRS points and 2.0 MADRS points; the “Treatment effect over placebo in 3MM biomarker signature positive subjects (TE SigPos)” value was 7.8 MADRS points. In series [4] (esketamine trials with suicidal ideation (SUI)), the “3MM status at baseline as predictor of treatment effect” value is recorded as “did not predict treatment effect”.
